# Reference: PubChem BioAssay (NCI)
# Several values for one entry are separate records, joined by “and”; a condition that tells them apart may be missing. Equal entries are not always repeated.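 96-well plates; 48 h exposure; 5 concentrations. Endpoints by linear interpolation between flanking doses. Not reached: highest tested concentration assigned. GI50 is the concentration that inhibits growth by half. At the TGI there is no net growth.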 Activity calls are given as the source filed them. No stated cut-off is given here; in the data, active means GI50 below about 0.43 µM; inactive means the rest.
# What was measured:
# Experiment in all cases: NCI tumour cell line growth inhibition, 48 h
# [1] = system: UO-31 renal
# [2] = system: TK-10 renal
# [3] = system: OVCAR-5 ovarian
# [4] = system: LOX IMVI melanoma
# [5] = system: RPMI-8226 leukemia
# [6] = system: SNB-19 CNS
# [7] = system: HT29 colon
# [8] = system: NCI-H460 lung
# [9] = system: IGROV1 ovarian
Structure (SMILES),TGI [1],TGI [2],TGI [3],TGI [4],TGI [5] [µM],TGI [6],TGI [7] [µM],TGI [8],TGI [9],GI50 [1] [µM],GI50 [2] [µM],GI50 [3] [µM],GI50 [4] [µM],GI50 [5] [µM],GI50 [6] [µM],GI50 [7] [µM],GI50 [8] [µM],GI50 [9] [µM],outcome [6],outcome [8]
O=C(CCN(C(=O)O)S(=O)(=O)c1ccc(NC(=O)c2ccccc2)cc1)NC1CCCCC1,> 100 µM,> 100 µM,> 100 µM,> 100 µM,41.8,> 100 µM,56.8,> 100 µM,> 100 µM,–,–,–,–,–,–,–,–,–,–,–
CCOC1Oc2ccc(C)cc2C(=O)/C1=C\Nc1ccc(C(N)=O)cc1 (stereo not given),59.7 µM,36 µM,47.1 µM,34.4 µM,90.5,> 100 µM,> 100,> 100 µM,72.5 µM,21.2,15.7,22,13.9,18.6,18.4,37.5,33.3,18.9,–,–
CCOC(=O)/C(C#N)=C/c1[nH]c(C(=O)OCc2ccccc2)c(C)c1C,> 100 µM,> 100 µM,> 100 µM,> 100 µM,> 100,> 100 µM,> 100,> 100 µM,> 100 µM,–,–,–,–,–,–,–,–,–,–,–
O=C(Nc1ccncc1)C(=O)c1cn(S(=O)(=O)c2cccc(F)c2)c2ccccc12,> 100 µM,> 100 µM,> 100 µM,> 100 µM,> 100,> 100 µM,14.9,> 100 µM,> 100 µM,6.15,15.7,> 100,3.51,1.58,49.2,1.77,13,8.33,–,–
COc1ccc(N2C(=O)/C(=C/c3ccc(N(CCC#N)CCC#N)cc3C)N=C2c2cc([N+](=O)[O-])ccc2Cl)cc1,> 63.1 µM,> 63.1 µM,> 63.1 µM,> 56.2 µM,> 63.1,28.9 µM,9.95,> 56.2 µM,> 63.1 µM,–,–,–,–,–,–,–,–,–,–,–
CC1CN1C(=O)NCCCCCCNC(=O)N1CC1C (stereo not given),> 100 µM,> 100 µM,> 100 µM,> 60.3 µM,> 100,> 100 µM,> 100,> 66.6 µM,> 100 µM,–,–,–,–,–,–,–,–,–,–,–
COc1ccc2c(c1)C(=O)c1c-2n(CCCn2ccnc2)c(=O)c2cc([N+](=O)[O-])ccc12,0.38 µM,> 95.8 µM,–,0.0351 µM,0.515,> 100 µM,> 100,0.241 µM,25.2 µM,< 0.01,0.14,< 0.0156,< 0.01,0.0653,< 0.01,< 0.01,< 0.01,< 0.01,–,–
CC[C@@]1(c2ccccc2)C2=C(CC(C)(C)CC2=O)Nc2[nH]ncc21,> 100 µM,> 100 µM,> 100 µM,> 100 µM,> 100,> 100 µM,> 100,> 100 µM,> 100 µM,> 100,> 100,> 100,> 100,> 100,> 100,> 100,> 100,> 100,–,–
NC(=O)COC(=O)c1c(Cl)nc2sccn12,> 100 µM,> 100 µM,> 100 µM,> 100 µM,> 66.4,> 100 µM,> 100,> 100 µM,> 100 µM,–,–,–,–,–,–,–,–,–,–,–
O=C(O)CCNC1CCCCC1,> 100 µM,> 100 µM,> 100 µM,> 100 µM,> 100,> 100 µM,> 100,> 100 µM,> 100 µM,> 100,> 100,> 100,> 100,> 100,> 100,> 100,> 100,> 100,–,–
Nc1cccc(S(=O)(=O)NCC(=O)O)c1,> 100 µM,> 100 µM,> 100 µM,> 100 µM,> 100,> 100 µM,> 100,> 100 µM,> 100 µM,–,–,–,–,–,–,–,–,–,–,–
NC1=NC(c2ccccc2)CC(c2cc(Cl)ccc2O)=N1 (stereo not given),29.2 µM,40.5 µM,34.6 µM,29.5 µM,41,30.7 µM,32.1,29.3 µM,42.1 µM,–,–,–,–,–,–,–,–,–,–,–
Cc1cc2c(cc1Cl)SC1=NN(C)S(=O)N1S2(=O)=O (stereo not given),> 100 µM,> 100 µM,> 100 µM,> 100 µM,> 100,> 100 µM,> 100,> 100 µM,> 100 µM,65.9,> 100,> 100,> 100,> 100,> 100,> 100,> 100,> 100,–,–
C[C@@H]1OC(=O)N2CCCC(=C3SCCCS3)C12 (stereo not given in full),> 100 µM,> 100 µM,> 100 µM,> 100 µM,> 100,> 100 µM,> 100,> 100 µM,> 100 µM,–,–,–,–,–,–,–,–,–,–,–
CS(=O)(=O)c1ccc(-n2nc(C(F)(F)F)cc2OC2CCCC2)cc1,> 100 µM,93.9 µM,> 100 µM,54.6 µM,> 100,> 100 µM,78.4,> 100 µM,> 100 µM,> 100,36.9,> 100,16.9,34.8,48.7,24.7,27.8,> 100,–,–
C#CCNC(=O)c1cccc2c1cc(C)n2-c1nc2c(c(NCc3ccccc3)n1)CCCC2,0.0678 µM,0.111 µM,0.154 µM,0.0256 µM,0.0537,0.126 µM,0.0924,0.0723 µM,0.102 µM,0.0242,0.0345,0.0461,0.0104,0.0107,0.0362,0.03,0.0233,0.0276,–,–
COc1ccc(C(=O)C#Cc2cnc(OC)nc2OC)cc1,–,–,3.01 µM,–,5.2,24.7 µM,–,10.8 µM,–,19100,17700,31100,9800,40100,–,17900,–,20300,inactive,inactive
Cc1ccc(C(=O)N(CCCN)C(c2oc3cc(Cl)ccc3c(=O)c2Cc2ccccc2)C(C)C)cc1 (stereo not given),2.46 µM,2.37 µM,1.78 µM,1.98 µM,1.46,2.41 µM,0.437,1.15 µM,2.72 µM,0.67,1.11,< 0.01,< 0.0402,< 0.01,1.02,< 0.01,< 0.01,–,–,–

Structure (SMILES),TGI [1],TGI [2],TGI [3],TGI [4],TGI [5] [µM],TGI [6],TGI [7] [µM],TGI [8],TGI [9],GI50 [1] [µM],GI50 [2] [µM],GI50 [3] [µM],GI50 [4] [µM],GI50 [5] [µM],GI50 [6] [µM],GI50 [7] [µM],GI50 [8] [µM],GI50 [9] [µM],outcome [6],outcome [8]
O=C(O)C(CS)Nc1c2ccccc2nc2ccccc12 (stereo not given),98 µM,> 100 µM,> 100 µM,> 100 µM,> 100,> 100 µM,> 100,> 100 µM,> 100 µM,–,–,–,–,–,–,–,–,–,–,–
COc1ccc2c(c1)[n+](=O)c(C(=O)C/C(=N/OCCCc1ccccc1)C(=O)NC13CC4CC(CC(C4)C1)C3)c(C)n2[O-],> 100 µM,> 100 µM,> 100 µM,> 100 µM,> 100,> 100 µM,> 100,> 100 µM,> 100 µM,–,–,–,–,–,–,–,–,–,–,–
Nc1nc2c(nnn2C2CC(O)C(CO)O2)c(=O)[nH]1 (stereo not given),> 100 µM,> 100 µM,> 100 µM,> 83.2 µM,> 100,> 100 µM,> 100,> 100 µM,> 100 µM,3.96,> 100,26.2,0.92,2.65,34.1,13.5,7.4,9.49,–,–
NC12CC3CC(C1)CC(C(=O)O)(C3)C2,> 100 µM,> 100 µM,> 100 µM,> 100 µM,> 100,> 100 µM,> 100,> 100 µM,> 100 µM,–,–,–,–,–,–,–,–,–,–,–
COC(=O)Nc1nc2ccc(Oc3ccc(NC(=O)Nc4cc(C(F)(F)F)ccc4F)cc3)cc2s1,> 25 µM,> 25 µM,> 25 µM,> 25 µM,> 25,> 25 µM,> 25,> 25 µM,> 25 µM,> 25,> 25,> 25,3.65,> 25,> 25,12.7,10.2,> 25,–,–
CS(=O)(=O)CCNCc1ccc(-c2ccc3ncnc(Nc4ccc(OCc5ccccc5)cc4)c3c2)o1,8.95 µM,9.7 µM,> 25 µM,8.75 µM,> 16.8,> 25 µM,13.5,> 25 µM,> 18.8 µM,2.95,0.285,6.51,4.05,5.38,11.1,3.33,3.73,3.45,–,–
O=C1C(Cl)=C(NCCN2CCOCC2)C(=O)c2ncccc21,3.03 µM and 2.61 µM,3.44 µM and 30.3 µM,3.59 µM and 3.56 µM,3.44 µM and 2.55 µM,9.23,3.15 µM and 4.01 µM,6.74,3.23 µM and 5.37 µM,3.73 µM and 3.4 µM,1.28,16.5,–,0.905,2.72,1.99,–,1.95,1.71,–,–
CCc1ccccc1NC(=O)C1=C(C)NC(C)=C(C(=O)Nc2ccccc2CC)C1c1ccc2c(c1)OCO2,70.5 µM,> 100 µM,82.9 µM,88.7 µM,49.5,> 100 µM,> 100,> 100 µM,> 100 µM,–,–,–,–,–,–,–,–,–,–,–
O=C1c2ccccc2C(=O)N1CCc1ncc[nH]1,> 100 µM,> 100 µM,> 100 µM,> 100 µM,> 100,> 100 µM,> 100,> 100 µM,> 100 µM,–,–,–,–,–,–,–,–,–,–,–
Cc1ccc(NC(=O)CC(=O)n2nc(C)c(N=Nc3ccccc3C(=O)O)c2C)cc1,> 100 µM,> 100 µM,> 100 µM,> 100 µM,> 100,> 100 µM,> 100,> 100 µM,> 100 µM,–,–,–,–,–,–,–,–,–,–,–
CCC[CH2][Sn]1([CH2]CCC)[O]C(=O)CN=Cc2c(ccc3ccccc23)[O]1,1.92 µM,0.743 µM,3.35 µM,0.827 µM,0.529,0.526 µM,2.36,2.75 µM,> 100 µM,0.635,0.293,1.93,0.242,0.154,0.229,1.08,1.36,2.48,–,–
CC(SC(=S)N1CCOCC1)c1cc2oc(=O)n(C)c2cc1Cl (stereo not given),> 100 µM,> 100 µM,> 100 µM,> 100 µM,> 100,> 100 µM,> 100,> 100 µM,> 10 µM,–,–,–,–,–,–,–,–,–,–,–
O=C(CCc1cc(-c2ccccc2)nc(=S)[nH]1)N(Cc1ccccc1)Cc1ccccc1,> 100 µM,> 100 µM,> 100 µM,> 100 µM,> 100,> 100 µM,> 100,> 100 µM,> 100 µM,–,–,–,–,–,–,–,–,–,–,–
C/C(O)=C(\N=O)C(=O)Nc1ccc(Cl)cc1Cl,> 100 µM,> 100 µM,> 100 µM,> 100 µM,> 100,> 100 µM,> 100,> 100 µM,> 100 µM,–,–,–,–,–,–,–,–,–,–,–
CCOCC(=O)N[C@H]1CCc2cc(OC)c(OC)c(OC)c2-c2ccc(OC)c(=O)cc21,> 100 µM,> 100 µM,> 100 µM,> 100 µM,> 100,> 100 µM,> 8.15,> 16.7 µM,> 100 µM,–,–,–,–,–,–,–,–,–,–,–
O=C1Nc2ccccc2C1(c1ccc(O)cc1)c1ccc(O)cc1,> 89.1 µM,39.6 µM,81.5 µM,35.9 µM,70.9,> 97 µM,> 90,37.9 µM,39.3 µM,23.7,0.536,25.6,5.97,25.8,34.3,29.3,18.5,10.2,–,–
Nc1c(-c2ccc(Cl)cc2)[n+]([O-])c2ccccc2[n+]1[O-],55.3 µM,> 100 µM,> 100 µM,> 100 µM,> 100,> 100 µM,> 100,> 100 µM,> 100 µM,–,–,–,–,–,–,–,–,–,–,–
